Experimental data taken from US9598420B2, “Benzodiazepine bromodomain inhibitor” (GlaxoSmithKline LLC, priority 2009, dated 2017).
Counter-ions that a name gives are not always drawn.

tested on: LPS induced IL-6 secretion from whole blood; assay: Measurement of LPS Induced IL-6 Secretion from Whole Blood; assay type: cell-based; settings: LPS 200 ng/ml, 24 hours, immunoassay, read-out: pIC50 (IL-6 levels) (converted)
Method: Activation of monocytic cells by agonists of toll-like receptors such as bacterial lipopolysaccharide (LPS) results in production of key inflammatory mediators including IL-6. Such pathways are widely considered to be central to the pathophysiology of a range of auto-immune and inflammatory disorders.
After further incubation for 24 hours at 37 degrees, 140 ul of PBS are added to each well. The plates are sealed, shaken for 10 minutes and then centrifuged (2500 rpm×10 min). 100 ul of the supernatant are removed and IL-6 levels assayed by immunoassay (typically by MesoScale Discovery technology) either immediately or following storage at −20 degrees.

Row | Structure (SMILES) | IC50 [µM]
1 | COc1ccc2c(c1)C(c1ccc(Cl)cc1)=NC(CC(=O)NCCc1ccccc1)c1nnc(C)n1-2 (stereo not drawn) [Example 2, 2-[6-(4-chlorophenyl)-1-methyl-8-(methyloxy)-4H-[1,2,4]triazolo[4,3-a][1,4]benzodiazepin-4-yl]-N-(2-phenylethyl)acetamide] | ≤ 10
2 | COc1ccc2c(c1)C(c1ccc(Cl)cc1)=NC(CC(=O)N1CCCCC1)c1nnc(C)n1-2 (stereo not drawn) [Example 3, 6-(4-chlorophenyl)-1-methyl-8-(methyloxy)-4-[2-oxo-2-(1-piperidinyl)ethyl]-4H-[1,2,4]triazolo[4,3-a][1,4]benzodiazepine] | ≤ 10
3 | COc1ccc2c(c1)C(c1ccc(Cl)cc1)=NC(CC(=O)NCc1ccco1)c1nnc(C)n1-2 (stereo not drawn) [Example 4, 2-[6-(4-chlorophenyl)-1-methyl-8-(methyloxy)-4H-[1,2,4]triazolo[4,3-a][1,4]benzodiazepin-4-yl]-N-(2-furanylmethyl)acetamide] | ≤ 10
4 | COc1ccc2c(c1)C(c1ccc(Cl)cc1)=N[C@@H](CC(=O)Nc1ccc(F)cc1)c1nnc(C)n1-2 [Example 11, 2-[(4S)-6-(4-chlorophenyl)-1-methyl-8-(methyloxy)-4H-[1,2,4]triazolo[4,3-a][1,4]benzodiazepin-4-yl]-N-(4-fluorophenyl)acetamide] | ≤ 10
5 | COc1ccc2c(c1)C(c1ccc(Cl)cc1)=N[C@@H](CC(=O)Nc1cccnc1)c1nnc(C)n1-2 [Example 13, 2-[(4S)-6-(4-chlorophenyl)-1-methyl-8-(methyloxy)-4H-[1,2,4]triazolo[4,3-a][1,4]benzodiazepin-4-yl]-N-3-pyridinylacetamide] | ≤ 10
6 | COc1ccc2c(c1)C(c1ccc(Cl)cc1)=N[C@@H](CC(=O)N[C@@H](C)c1ccccc1)c1nnc(C)n1-2 [Example 17, 2-[(4S)-6-(4-chlorophenyl)-1-methyl-8-(methyloxy)-4H-[1,2,4]triazolo[4,3-a][1,4]benzodiazepin-4-yl]-N-[(1S)-1-phenylethyl]acetamide] | ≤ 10
7 | COc1ccc2c(c1)C(c1ccc(Cl)cc1)=NC(CC(=O)NCCN(C)C)c1nnc(C)n1-2 (stereo not drawn) [Example 26, 2-[6-(4-chlorophenyl)-1-methyl-8-(methyloxy)-4H-[1,2,4]triazolo[4,3-a][1,4]benzodiazepin-4-yl]-N-[2-(dimethylamino)ethyl]acetamide] | ≤ 10
8 | Cc1nnc2n1-c1ccc(OS(C)(=O)=O)cc1C(c1ccc(Cl)cc1)=N[C@H]2CC(=O)Nc1ccc(F)cc1 [Example 31, (4S)-6-(4-Chlorophenyl)-4-{2-[(4-fluorophenyl)amino]-2-oxoethyl}-1-methyl-4H-[1,2,4]triazolo[4,3-a][1,4]benzodiazepin-8-yl methanesulfonate] | ≤ 10
9 | COC(=O)C[C@@H]1N=C(c2ccc(Cl)cc2)c2cc(OC)ccc2-n2c(C)nnc21 [Example 34, Methyl [(4S)-6-(4-chlorophenyl)-1-methyl-8-(methyloxy)-4H-[1,2,4]triazolo[4,3-a][1,4]benzodiazepin-4-yl]acetate] | ≤ 10
10 | CNCCNC(=O)C[C@@H]1N=C(c2ccc(Cl)cc2)c2cc(OC)ccc2-n2c(C)nnc21 [Example 38, 2-[(4S)-6-(4-Chlorophenyl)-1-methyl-8-(methyloxy)-4H-[1,2,4]triazolo[4,3-a][1,4]benzodiazepin-4-yl]-N-[2-(methylamino)ethyl]acetamide trifluoroacetic acid salt] | ≤ 10
11 | COc1ccc2c(c1)C(c1ccc(Cl)cc1)=N[C@@H](CC(=O)NC1CCNCC1)c1nnc(C)n1-2 [Example 39, 2-[(4S)-6-(4-Chlorophenyl)-1-methyl-8-(methyloxy)-4H-[1,2,4]triazolo[4,3-a][1,4]benzodiazepin-4-yl]-N-4-piperidinylacetamide trifluoroacetic acid salt] | ≤ 10
12 | CNC1CCN(C(=O)C[C@@H]2N=C(c3ccc(Cl)cc3)c3cc(OC)ccc3-n3c(C)nnc32)CC1 [Example 40, 1-{[(4S)-6-(4-chlorophenyl)-1-methyl-8-(methyloxy)-4H-[1,2,4]triazolo[4,3-a][1,4]benzodiazepin-4-yl]acetyl}-N-methyl-4-piperidinamine formic acid salt] | ≤ 10
13 | COc1ccc2c(c1)C(c1ccc(Cl)cc1)=N[C@@H](CC(=O)N1CCC(N)CC1)c1nnc(C)n1-2 [Example 41, (S)-1-(4-aminopiperidin-1-yl)-2-(6-(4-chlorophenyl)-8-methoxy-1-methyl-4H-benzo[f][1,2,4]triazolo[4,3-a][1,4]diazepin-4-yl)ethanone] | ≤ 10
14 | COc1ccc2c(c1)C(c1ccc(Cl)cc1)=N[C@@H](CC(=O)NC1CNC1)c1nnc(C)n1-2 [Example 42, (S)-N-(azetidin-3-yl)-2-(6-(4-chlorophenyl)-8-methoxy-1-methyl-4H-benzo[f][1,2,4]triazolo[4,3-a][1,4]diazepin-4-yl)acetamide] | ≤ 10
15 | COc1ccc2c(c1)C(c1ccc(Cl)cc1)=N[C@@H](CC(=O)N1CC(N)C1)c1nnc(C)n1-2 [Example 43, (S)-1-(3-aminoazetidin-1-yl)-2-(6-(4-chlorophenyl)-8-methoxy-1-methyl-4H-benzo[f][1,2,4]triazolo[4,3-a][1,4]diazepin-4-yl)ethanone] | ≤ 10
16 | COc1ccc2c(c1)C(c1ccc(Cl)cc1)=N[C@@H](CC(=O)N1CCC(O)CC1)c1nnc(C)n1-2 [Example 44, (S)-2-(6-(4-chlorophenyl)-8-methoxy-1-methyl-4H-benzo[f][1,2,4]triazolo[4,3-a][1,4]diazepin-4-yl)-1-(4-hydroxypiperidin-1-yl)ethanone] | ≤ 10
17 | COc1ccc2c(c1)C(c1ccc(Cl)cc1)=N[C@@H](CC(=O)NCCN1CCOCC1)c1nnc(C)n1-2 [Example 45, 2-[(4S)-6-(4-chlorophenyl)-1-methyl-8-(methyloxy)-4H-[1,2,4]triazolo[4,3-a][1,4]benzodiazepin-4-yl]-N-[2-(4-morpholinyl)ethyl]acetamide] | ≤ 10
18 | COc1ccc2c(c1)C(c1ccc(Cl)cc1)=N[C@@H](CC(=O)NCCc1c[nH]cn1)c1nnc(C)n1-2 [Example 46, 2-[(4S)-6-(4-chlorophenyl)-1-methyl-8-(methyloxy)-4H-[1,2,4]triazolo[4,3-a][1,4]benzodiazepin-4-yl]-N-[2-(1H-imidazol-4-yl)ethyl]acetamide] | ≤ 10
19 | COc1ccc2c(c1)C(c1ccc(Cl)cc1)=N[C@@H](CC(=O)OC(C)(C)C)c1nnc(C)n1-2 [Example 47, (S)-tert-butyl-2-(6-(4-chlorophenyl)-8-methoxy-1-methyl-4H-benzo[f][1,2,4]triazolo[4,3-a][1,4]diazepin-4-yl)acetate] | ≤ 10
20 | COc1ccc2c(c1)C(c1ccc(Cl)cc1)=N[C@@H](CC(=O)OC1CCNCC1)c1nnc(C)n1-2 [Example 48, (S)-piperidin-4-yl-2-(6-(4-chlorophenyl)-8-methoxy-1-methyl-4H-benzo[f][1,2,4]triazolo[4,3-a][1,4]diazepin-4-yl)acetate] | ≤ 10
21 | COc1ccc2c(c1)C(c1ccc(Cl)cc1)=N[C@@H](CC(=O)NCCN(C)C)c1nnc(C)n1-2 [Example 50, 2-[(4S)-6-(4-chlorophenyl)-1-methyl-8-(methyloxy)-4H-[1,2,4]triazolo[4,3-a][1,4]benzodiazepin-4-yl]-N-[2-(dimethylamino)ethyl]acetamide formic acid salt] | ≤ 10
